Assay results from ChEMBL document CHEMBL1821617, “Monanchocidins B-E: polycyclic guanidine alkaloids with potent antileukemic activities from the sponge Monanchora pulchra” (J Nat Prod, 2011).

The molecules below were run on HL-60 (assay: Cytotoxicity against human HL60 cells after 72 hrs by MTS assay). Conditions: HL-60, 72 h.
Type: functional, cell-based
`CC[C@@H]1C=CCC[C@]2(C[C@H]3CC[C@H]4[C@@H](C(=O)OCCCCCCCCCCCCCC[C@@H]5O[C@](O)(CCN)[C@H](O)N(CCCN)C5=O)[C@@]5(CCC[C@H](C)O5)NC(=[N+]34)N2)O1` [MONANCHOCIDIN B] showed an IC50 of 200 nM. Molecule `CC/C=C/[C@@H]1CC[C@]2(C[C@H]3CC[C@H]4[C@@H](C(=O)OCCCCCCCCCCCCCC[C@@H]5O[C@](O)(CCN)[C@H](O)N(CCCN)C5=O)[C@@]5(CCC[C@H](C)O5)NC(=[N+]34)N2)O1` [MONANCHOCIDIND] has an IC50 of 830 nM. `CC[C@@H]1C=CCC[C@]2(C[C@H]3CC[C@H]4[C@@H](C(=O)OCCCCCCCCCCCCCCC[C@@H]5O[C@](O)(CCN)[C@H](O)N(CCCN)C5=O)[C@@]5(CCC[C@H](C)O5)NC(=[N+]34)N2)O1` [MONANCHOCIDIN C] was tested, and the IC50 was 110 nM. For `CC/C=C/[C@@H]1CC[C@]2(C[C@H]3CC[C@H]4[C@@H](C(=O)OC(CC)CCCCCCCCCCCC[C@@H]5O[C@](O)(CCN)[C@H](O)N(CCCN)C5=O)[C@@]5(CCC[C@H](C)O5)NC(=[N+]34)N2)O1` (stereo partly specified) [MONANCHOCIDIN E], the IC50 was 650 nM. Work on `CC/C=C/[C@@H]1CC[C@]2(C[C@H]3CC[C@H]4[C@@H](C(=O)OC(CC)CCCCCCCCCCCCC[C@@H]5O[C@](O)(CCN)[C@H](O)N(CCCN)C5=O)[C@@]5(CCC[C@H](C)O5)NC(=[N+]34)N2)O1` (stereo partly specified) [MONANCHOCIDIN A] yielded an IC50 of 540 nM. Work on `CC(=O)O[C@H]1C(=O)[C@@]2(C)[C@H]([C@H](OC(=O)c3ccccc3)[C@]3(O)C[C@H](OC(=O)[C@H](O)[C@@H](NC(=O)c4ccccc4)c4ccccc4)C(C)=C1C3(C)C)[C@]1(OC(C)=O)CO[C@@H]1C[C@@H]2O` [PACLITAXEL] yielded an IC50 of 3.4 nM.
